In ChEMBL document CHEMBL1201862, “PubChem BioAssay data set” (2004):
One block for each molecule: values may come before it. Calls of active or inactive are those of the source.

Experiments:
[1] = target: Protein S100-A4 (Homo sapiens, UniProt P26447); assay: S100A4-myosin IIA binding inhibitor potency, dose response, biochemical, fluorescence polarization, cherry-picked hits (AID 687001); type: functional
[2] = cells; type: functional, cell-based
[3] = target: T1, Nuclear receptor subfamily 0 group B member 1 (Homo sapiens, UniProt P51843); type: functional, cell-based;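 note: HEK293T cells transfected with SF-1 and DAX-1 plus StAR promoter luciferase reporter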
T1 sequence (P51843 whole entry): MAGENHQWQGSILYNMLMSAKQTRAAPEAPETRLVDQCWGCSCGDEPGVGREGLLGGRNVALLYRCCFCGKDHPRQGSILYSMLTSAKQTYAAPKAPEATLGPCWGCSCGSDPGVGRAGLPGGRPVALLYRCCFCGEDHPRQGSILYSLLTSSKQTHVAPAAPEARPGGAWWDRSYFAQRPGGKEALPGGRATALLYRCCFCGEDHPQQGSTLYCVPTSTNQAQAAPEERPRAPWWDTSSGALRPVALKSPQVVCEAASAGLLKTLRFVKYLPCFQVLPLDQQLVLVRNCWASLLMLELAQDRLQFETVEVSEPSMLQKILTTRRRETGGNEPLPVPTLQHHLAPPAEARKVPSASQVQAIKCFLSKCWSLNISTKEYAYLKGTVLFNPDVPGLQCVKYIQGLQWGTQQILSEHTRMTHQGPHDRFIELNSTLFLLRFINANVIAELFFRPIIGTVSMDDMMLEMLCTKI

[4] = target: SWI/SNF-related matrix-associated actin-dependent regulator of chromatin subfamily A member 2 (Homo sapiens, UniProt P51531); assay: Luminescence-based cell-based high throughput dose response assay to identify activators of the function of SWI/SNF related, matrix associated, actin dependent regulator of chromatin, subfamily a, member 2 (SMARCA2, BRM).; type: functional
[5] = Counterscreen for activators of the function of SWI/SNF related, matrix associated, actin dependent regulator of chromatin, subfamily a, member 2 (SMARCA2, BRM): Luminescence-based cell-based high throughput dose response assay to identify non-selective compounds using the VP16 reporter assay.; type: functional
[6] = target: T2, Caspase-3 (Homo sapiens, UniProt P42574); type: functional
T2 sequence (P42574 whole entry): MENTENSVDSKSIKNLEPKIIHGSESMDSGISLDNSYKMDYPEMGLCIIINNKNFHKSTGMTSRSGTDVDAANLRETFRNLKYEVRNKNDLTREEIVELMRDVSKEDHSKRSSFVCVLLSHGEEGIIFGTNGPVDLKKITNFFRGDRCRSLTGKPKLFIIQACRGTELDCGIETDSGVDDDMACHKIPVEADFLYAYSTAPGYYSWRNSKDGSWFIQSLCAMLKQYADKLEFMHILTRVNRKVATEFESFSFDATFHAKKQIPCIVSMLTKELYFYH

[7] = target: T3, Sentrin-specific protease 7 (Homo sapiens, UniProt Q9BQF6); type: functional;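 note: Luminescence-based dose-response confirmation of ultra-high-throughput screening hits, measuring inhibition of SENP7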
T3 sequence (Q9BQF6 whole entry): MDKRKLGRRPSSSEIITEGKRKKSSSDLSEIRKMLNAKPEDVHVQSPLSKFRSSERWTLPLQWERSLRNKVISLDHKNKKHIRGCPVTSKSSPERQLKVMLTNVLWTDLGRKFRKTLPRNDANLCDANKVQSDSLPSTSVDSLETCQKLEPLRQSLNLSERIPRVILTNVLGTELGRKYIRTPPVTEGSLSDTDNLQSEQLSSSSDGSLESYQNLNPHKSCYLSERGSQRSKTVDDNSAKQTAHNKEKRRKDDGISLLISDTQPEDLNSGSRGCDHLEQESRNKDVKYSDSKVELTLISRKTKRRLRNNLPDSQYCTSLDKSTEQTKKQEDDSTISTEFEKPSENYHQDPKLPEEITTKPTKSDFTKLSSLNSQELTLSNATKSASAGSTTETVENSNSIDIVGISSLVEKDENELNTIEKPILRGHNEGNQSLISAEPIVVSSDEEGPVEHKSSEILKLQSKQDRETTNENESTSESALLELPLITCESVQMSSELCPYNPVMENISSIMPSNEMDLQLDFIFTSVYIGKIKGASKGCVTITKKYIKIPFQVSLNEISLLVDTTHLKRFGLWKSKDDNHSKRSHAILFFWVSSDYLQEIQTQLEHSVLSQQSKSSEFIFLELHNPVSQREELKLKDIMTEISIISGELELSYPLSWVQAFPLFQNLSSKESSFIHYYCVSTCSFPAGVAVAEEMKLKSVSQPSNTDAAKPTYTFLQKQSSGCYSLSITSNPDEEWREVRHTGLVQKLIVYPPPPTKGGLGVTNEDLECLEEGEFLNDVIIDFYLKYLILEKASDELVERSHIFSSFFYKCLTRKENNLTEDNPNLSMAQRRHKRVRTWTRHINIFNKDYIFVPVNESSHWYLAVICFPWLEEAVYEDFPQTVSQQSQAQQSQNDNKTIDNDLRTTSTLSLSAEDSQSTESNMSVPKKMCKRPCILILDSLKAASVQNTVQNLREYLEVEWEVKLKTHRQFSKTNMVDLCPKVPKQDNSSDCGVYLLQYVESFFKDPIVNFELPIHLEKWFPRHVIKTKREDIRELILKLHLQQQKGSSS

[8] = target: T4, Sentrin-specific protease 6 (Homo sapiens, UniProt Q9GZR1); type: functional;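 note: Luminescence-based dose-response confirmatory assay of SENP6 inhibition, following up an ultra-high-throughput screen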
T4 sequence (Q9GZR1 whole entry): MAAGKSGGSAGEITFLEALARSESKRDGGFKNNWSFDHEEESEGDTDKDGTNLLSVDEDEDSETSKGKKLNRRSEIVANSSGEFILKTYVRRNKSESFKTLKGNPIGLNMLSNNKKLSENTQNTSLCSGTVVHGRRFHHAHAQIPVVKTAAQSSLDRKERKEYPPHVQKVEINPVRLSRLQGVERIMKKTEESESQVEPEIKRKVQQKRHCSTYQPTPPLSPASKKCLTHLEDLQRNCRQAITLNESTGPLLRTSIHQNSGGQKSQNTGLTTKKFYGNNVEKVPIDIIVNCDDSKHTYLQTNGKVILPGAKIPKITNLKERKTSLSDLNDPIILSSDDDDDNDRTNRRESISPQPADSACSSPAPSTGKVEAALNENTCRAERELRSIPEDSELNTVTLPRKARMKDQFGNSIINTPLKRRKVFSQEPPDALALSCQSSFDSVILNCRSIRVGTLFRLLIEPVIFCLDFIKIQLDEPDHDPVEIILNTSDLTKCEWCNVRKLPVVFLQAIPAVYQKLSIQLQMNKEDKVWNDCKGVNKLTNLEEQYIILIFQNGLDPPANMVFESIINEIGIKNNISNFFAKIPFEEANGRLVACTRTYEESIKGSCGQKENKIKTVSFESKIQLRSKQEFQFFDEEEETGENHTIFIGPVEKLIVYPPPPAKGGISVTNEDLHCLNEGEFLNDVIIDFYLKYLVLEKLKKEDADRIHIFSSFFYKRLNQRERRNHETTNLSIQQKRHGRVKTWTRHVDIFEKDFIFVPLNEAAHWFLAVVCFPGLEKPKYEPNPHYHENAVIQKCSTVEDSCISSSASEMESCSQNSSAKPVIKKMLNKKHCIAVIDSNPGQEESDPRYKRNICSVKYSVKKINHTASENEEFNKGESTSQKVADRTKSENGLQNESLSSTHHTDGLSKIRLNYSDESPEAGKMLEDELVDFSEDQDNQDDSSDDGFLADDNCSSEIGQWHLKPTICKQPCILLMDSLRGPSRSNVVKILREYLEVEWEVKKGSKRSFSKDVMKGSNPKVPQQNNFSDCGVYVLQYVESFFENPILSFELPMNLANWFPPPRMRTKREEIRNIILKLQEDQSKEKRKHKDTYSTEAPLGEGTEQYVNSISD

[9] = target: T5, Sentrin-specific protease 8 (Homo sapiens, UniProt Q96LD8); type: functional
T5 sequence (Q96LD8 whole entry): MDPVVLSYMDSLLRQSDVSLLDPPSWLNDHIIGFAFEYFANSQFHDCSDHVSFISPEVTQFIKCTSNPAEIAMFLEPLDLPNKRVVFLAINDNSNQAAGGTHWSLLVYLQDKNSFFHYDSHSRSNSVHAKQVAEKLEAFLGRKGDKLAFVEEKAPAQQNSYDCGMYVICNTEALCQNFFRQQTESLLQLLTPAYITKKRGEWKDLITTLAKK

[10] = target: Mitochondrial peptide methionine sulfoxide reductase (Bos taurus, UniProt P54149); assay: Absorbance-based biochemical high throughput dose response assay for activators of Methionine sulfoxide reductase A (MsrA).; type: functional
[11] = target: T5, Sentrin-specific protease 8; type: functional; remark: listed apart in the source
[12] = target: T5, Sentrin-specific protease 8; type: functional; remark: listed apart in the source
[13] = target: T2, Caspase-3; assay: Dose-response confirmation of uHTS inhibitor hits of Sentrin-Specific Protease 8 in a Caspase-3 Fluorescence assay.; type: functional

Chain of SWI/SNF-related matrix-associated actin-dependent regulator of chromatin subfamily A member 2 (P51531 whole entry): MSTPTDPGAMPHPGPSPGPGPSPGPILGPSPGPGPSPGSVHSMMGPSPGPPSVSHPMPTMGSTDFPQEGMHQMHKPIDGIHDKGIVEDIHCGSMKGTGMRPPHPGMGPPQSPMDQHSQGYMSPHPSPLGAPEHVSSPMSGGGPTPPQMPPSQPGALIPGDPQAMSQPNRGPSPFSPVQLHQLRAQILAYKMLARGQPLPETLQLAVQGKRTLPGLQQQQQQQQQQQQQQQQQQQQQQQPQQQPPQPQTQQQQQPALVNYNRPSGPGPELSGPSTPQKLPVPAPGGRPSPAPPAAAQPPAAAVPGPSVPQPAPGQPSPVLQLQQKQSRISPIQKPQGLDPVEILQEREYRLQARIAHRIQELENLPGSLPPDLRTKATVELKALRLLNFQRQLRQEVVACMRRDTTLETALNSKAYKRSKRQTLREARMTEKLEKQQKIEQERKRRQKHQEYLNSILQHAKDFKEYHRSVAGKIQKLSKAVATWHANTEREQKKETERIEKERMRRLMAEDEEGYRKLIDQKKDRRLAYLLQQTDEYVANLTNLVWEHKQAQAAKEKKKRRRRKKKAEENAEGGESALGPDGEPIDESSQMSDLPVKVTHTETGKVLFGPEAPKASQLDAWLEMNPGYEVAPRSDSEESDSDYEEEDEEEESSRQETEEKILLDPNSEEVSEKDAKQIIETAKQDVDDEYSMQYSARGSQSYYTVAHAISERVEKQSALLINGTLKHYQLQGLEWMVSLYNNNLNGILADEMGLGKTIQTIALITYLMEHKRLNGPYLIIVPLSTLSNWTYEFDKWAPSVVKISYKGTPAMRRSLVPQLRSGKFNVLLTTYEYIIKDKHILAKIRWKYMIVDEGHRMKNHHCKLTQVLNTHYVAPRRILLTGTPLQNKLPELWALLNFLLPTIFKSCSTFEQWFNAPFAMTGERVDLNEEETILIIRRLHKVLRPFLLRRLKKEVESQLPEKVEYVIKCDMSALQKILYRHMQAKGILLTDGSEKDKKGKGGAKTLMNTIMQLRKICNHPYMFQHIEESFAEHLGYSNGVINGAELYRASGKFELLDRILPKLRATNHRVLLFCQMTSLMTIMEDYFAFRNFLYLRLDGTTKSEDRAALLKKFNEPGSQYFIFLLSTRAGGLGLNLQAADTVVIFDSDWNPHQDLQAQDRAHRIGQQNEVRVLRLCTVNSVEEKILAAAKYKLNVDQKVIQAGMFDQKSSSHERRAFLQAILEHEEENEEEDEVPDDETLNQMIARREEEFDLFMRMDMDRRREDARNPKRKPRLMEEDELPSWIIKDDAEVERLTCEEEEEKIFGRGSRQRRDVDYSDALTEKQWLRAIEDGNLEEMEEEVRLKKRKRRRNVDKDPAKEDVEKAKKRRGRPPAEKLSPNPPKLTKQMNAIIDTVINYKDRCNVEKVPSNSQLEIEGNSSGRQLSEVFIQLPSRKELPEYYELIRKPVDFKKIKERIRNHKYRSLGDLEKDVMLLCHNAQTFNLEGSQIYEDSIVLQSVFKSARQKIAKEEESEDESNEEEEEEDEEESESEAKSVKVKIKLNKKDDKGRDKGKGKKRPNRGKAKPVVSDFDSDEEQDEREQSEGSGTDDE
Chain of Mitochondrial peptide methionine sulfoxide reductase (P54149 whole entry): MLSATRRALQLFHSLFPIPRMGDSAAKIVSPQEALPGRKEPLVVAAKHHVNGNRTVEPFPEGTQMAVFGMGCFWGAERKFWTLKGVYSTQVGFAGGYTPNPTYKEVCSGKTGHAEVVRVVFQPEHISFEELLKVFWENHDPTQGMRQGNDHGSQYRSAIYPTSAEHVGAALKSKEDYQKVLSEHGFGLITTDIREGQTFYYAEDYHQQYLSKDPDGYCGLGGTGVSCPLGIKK
Chain of Protein S100-A4 (P26447 whole entry): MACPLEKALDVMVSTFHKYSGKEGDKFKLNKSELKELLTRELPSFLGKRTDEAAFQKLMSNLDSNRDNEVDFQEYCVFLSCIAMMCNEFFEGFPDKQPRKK

- AC50 [1]: 9.67 µM (active)
SMILES: O=C(CCc1ccccc1Cl)NC1CCCN(c2ccc(C(F)(F)F)cn2)C1 (stereo not drawn)

SMILES: Cn1nnnc1SCC(=O)Nc1ccc2c(c1)OCCO2
- IC50 [2]: > 67.5 µM (inactive)
- IC50 [3]: > 67.5 µM (inactive)

SMILES: CCCCn1c(=N)n(CC(=O)c2ccc(OC)cc2)c2ccccc21
- EC50 [4]: > 91.1 µM (inactive)
- EC50 [5]: > 91.1 µM (inactive)

- IC50 [6]: 6.74 µM (active)
- IC50 [7]: 6.91 µM (active)
- IC50 [8]: 4.34 µM (active)
- EC50 [10]: 36.1 µM (inactive)
- IC50 [13]: 84.6 µM (inactive)
SMILES: O=C(COC(=O)c1ccc([N+](=O)[O-])s1)NNC(=O)c1ccccc1
- IC50 [9]: 4.2 µM (active)
- IC50 [11]: 2.3 µM (active)
- IC50 [12]: 4.94 µM (active)
